# Measurements reported in article PMC10484922, “Discovery of a selective and biologically active low-molecular weight antagonist of human interleukin-1β” (Nature Communications, 2023).
# Columns and labels:
# [1] = system: HEK-Blue IL-1β cells stimulated with hIL-1α; test: HEK293 reporter gene assay, hIL-1α as trigger; assay type: cell-based, human
# Experimental: (§1) We used HEK-Blue™ IL-1β cells that respond specifically to IL-1 (# hkb-il1b, InvivoGen). These cells can detect IL-1α and IL-1β, as these cytokines bind to the same receptor, IL-1R1. They express a Seap reporter gene under the control of the IFN-β minimal promoter fused to five NF-kappaB and five AP-1 binding sites. Thirty microliters (300,000 cells/ml) per well of a 384-well plate were plated overnight. Cells were then stimulated with graded concentrations of cytokines (hIL-1α or hIL-1β) in the absence or presence of canakinumab (Ilaris®, ILARI LYVI 150MG 22GLW.012, batch U003 0409)[22], anakinra (Kineret®, 100 mg/0.67 ml injectable solution, Sobi)[23], or compound (S)-2 (compounds were pre-mixed for 1 h with the cytokine prior to addition to cells) and further incubated overnight before assessment of Seap activity.
# [2] = system: HEK-Blue IL-1β cells stimulated with hIL-1β; test: HEK293 reporter gene assay, hIL-1β as trigger; assay type: cell-based, human
# Experimental: as §1
# [3] = system: normal human dermal fibroblasts stimulated with hIL-1α; test: Human fibroblast IL-6 release assay, hIL-1α stimulated; assay type: cell-based; parameters: IL-1alpha (mean, SD): mean readout (IL-6 release): unit not given here; settings: for Mean OD (OD 450nm) / IL-1alpha (mean, SD): mean readout (IL-6 release): Figure 3c; for Mean OD (OD 450nm): compound 1 nM; for IL-1alpha (mean, SD): mean readout (IL-6 release): compound @ 1nM
# Experimental: as §1
# (§2) Normal human dermal fibroblasts (NHDF) from Clonetics^TM (LONZA, Cat # CC-2509 (NHDF-Neo), Lot # 0000234242, used at passage ≤14) were seeded at a density of 5000 cells/well in 100 μL of culture medium using 96-well plates (flat bottom, TCT). Treatment with cytokines/compounds was performed as described above. Cells were incubated for another 6 h and were subsequently spun down (320g/3 min). IL-6 was measured in the supernatant by ELISA (BioLegend, # 430503) or HTRF (Cisbio, #62HIL06PEH).
# [4] = system: normal human dermal fibroblasts stimulated with hIL-1β; test: Human fibroblast IL-6 release assay, hIL-1β stimulated; assay type: cell-based; parameters: IL-6, average / inhibition, replicates of EXP1, EXP2, EXP3 / inhibition, Mean / IL-1beta (mean, SD): mean readout (IL-6 release): unit not given here; settings: for Mean OD (OD 450nm) / IL-1beta (mean, SD): mean readout (IL-6 release): Figure 3c; for Mean OD (OD 450nm): compound 1 nM; for IL-1beta (mean, SD): mean readout (IL-6 release): compound @ 1nM
# Experimental: as §1, §2
molecule,measurement,setting,value
Cc1ccc2c(c1)NC(=O)[C@@]2(c1cn[nH]c1)c1cc(-c2ccc(C(=O)O)cc2C(=O)O)ccc1O [(S) 2],"reporter gene assay signal, mean (Figure 3d)","[1]; IL-1alpha 3.04596 pg/ml, inhibitor 50uM",0.08
same,"reporter gene assay signal, mean (Figure 3d)","[1]; IL-1alpha 6.09192 pg/ml, inhibitor 50uM",0.1
same,"reporter gene assay signal, mean (Figure 3d)","[1]; IL-1alpha 12.1838 pg/ml, inhibitor 50uM",0.15
same,"reporter gene assay signal, mean (Figure 3d)","[1]; IL-1alpha 24.3677 pg/ml, inhibitor 50uM",0.1
same,"reporter gene assay signal, mean (Figure 3d)","[1]; IL-1alpha 48.7353 pg/ml, inhibitor 50uM",0.59
same,"reporter gene assay signal, mean (Figure 3d)","[1]; IL-1alpha 97.4707 pg/ml, inhibitor 50uM",1.08
same,"reporter gene assay signal, mean (Figure 3d)","[1]; IL-1alpha 194.941 pg/ml, inhibitor 50uM",1.42
same,"reporter gene assay signal, mean (Figure 3d)","[1]; IL-1alpha 389.883 pg/ml, inhibitor 50uM",1.67
same,"reporter gene assay signal, mean (Figure 3d)","[1]; IL-1alpha 779.766 pg/ml, inhibitor 50uM",1.82
same,"reporter gene assay signal, mean (Figure 3d)","[1]; IL-1alpha 1559.53 pg/ml, inhibitor 50uM",1.88
same,"reporter gene assay signal, mean (Figure 3d)","[1]; IL-1alpha 3119.06 pg/ml, inhibitor 50uM",1.91
same,"reporter gene assay signal, mean (Figure 3d)","[1]; IL-1alpha 6238.12 pg/ml, inhibitor 50uM",1.96
same,"reporter gene assay signal, mean (Figure 3d)","[1]; IL-1alpha 12476.2 pg/ml, inhibitor 50uM",1.97
same,"reporter gene assay signal, mean (Figure 3d)","[1]; IL-1alpha 24952.5 pg/ml, inhibitor 50uM",2.03
same,"reporter gene assay signal, mean (Figure 3d)","[1]; IL-1alpha 49905 pg/ml, inhibitor 50uM",2.01
same,"reporter gene assay signal, mean (Figure 3d)","[2]; IL-1beta 3.04596 pg/ml, inhibitor 50uM",0.06
same,"reporter gene assay signal, mean (Figure 3d)","[2]; IL-1beta 6.09192 pg/ml, inhibitor 50uM",0.06
same,"reporter gene assay signal, mean (Figure 3d)","[2]; IL-1beta 12.1838 pg/ml, inhibitor 50uM",0.06
same,"reporter gene assay signal, mean (Figure 3d)","[2]; IL-1beta 24.3677 pg/ml, inhibitor 50uM",0.08
same,"reporter gene assay signal, mean (Figure 3d)","[2]; IL-1beta 48.7353 pg/ml, inhibitor 50uM",0.1
same,"reporter gene assay signal, mean (Figure 3d)","[2]; IL-1beta 97.4707 pg/ml, inhibitor 50uM",0.17
same,"reporter gene assay signal, mean (Figure 3d)","[2]; IL-1beta 194.941 pg/ml, inhibitor 50uM",0.41
same,"reporter gene assay signal, mean (Figure 3d)","[2]; IL-1beta 389.883 pg/ml, inhibitor 50uM",0.84
same,"reporter gene assay signal, mean (Figure 3d)","[2]; IL-1beta 779.766 pg/ml, inhibitor 50uM",1.26
same,"reporter gene assay signal, mean (Figure 3d)","[2]; IL-1beta 1559.53 pg/ml, inhibitor 50uM",1.6
same,"reporter gene assay signal, mean (Figure 3d)","[2]; IL-1beta 3119.06 pg/ml, inhibitor 50uM",1.74
same,"reporter gene assay signal, mean (Figure 3d)","[2]; IL-1beta 6238.12 pg/ml, inhibitor 50uM",1.87
same,"reporter gene assay signal, mean (Figure 3d)","[2]; IL-1beta 12476.2 pg/ml, inhibitor 50uM",1.96
same,"reporter gene assay signal, mean (Figure 3d)","[2]; IL-1beta 24952.5 pg/ml, inhibitor 50uM",2.06
same,"reporter gene assay signal, mean (Figure 3d)","[2]; IL-1beta 49905 pg/ml, inhibitor 50uM",2.02
anakinra: IL-1R1 antagonist [reference compound],"reporter gene assay signal, mean (Figure 3d)","[1]; IL-1alpha 3.04596 pg/ml, inhibitor 3nM",0.06
same,"reporter gene assay signal, mean (Figure 3d)","[1]; IL-1alpha 6.09192 pg/ml, inhibitor 3nM",0.06
same,"reporter gene assay signal, mean (Figure 3d)","[1]; IL-1alpha 12.1838 pg/ml, inhibitor 3nM",0.06
same,"reporter gene assay signal, mean (Figure 3d)","[1]; IL-1alpha 24.3677 pg/ml, inhibitor 3nM",0.06
same,"reporter gene assay signal, mean (Figure 3d)","[1]; IL-1alpha 48.7353 pg/ml, inhibitor 3nM",0.06
same,"reporter gene assay signal, mean (Figure 3d)","[1]; IL-1alpha 97.4707 pg/ml, inhibitor 3nM",0.06
same,"reporter gene assay signal, mean (Figure 3d)","[1]; IL-1alpha 194.941 pg/ml, inhibitor 3nM",0.07
same,"reporter gene assay signal, mean (Figure 3d)","[1]; IL-1alpha 389.883 pg/ml, inhibitor 3nM",0.08
same,"reporter gene assay signal, mean (Figure 3d)","[1]; IL-1alpha 779.766 pg/ml, inhibitor 3nM",0.09
same,"reporter gene assay signal, mean (Figure 3d)","[1]; IL-1alpha 1559.53 pg/ml, inhibitor 3nM",0.15
same,"reporter gene assay signal, mean (Figure 3d)","[1]; IL-1alpha 3119.06 pg/ml, inhibitor 3nM",0.24
same,"reporter gene assay signal, mean (Figure 3d)","[1]; IL-1alpha 6238.12 pg/ml, inhibitor 3nM",0.46
same,"reporter gene assay signal, mean (Figure 3d)","[1]; IL-1alpha 12476.2 pg/ml, inhibitor 3nM",0.84
same,"reporter gene assay signal, mean (Figure 3d)","[1]; IL-1alpha 24952.5 pg/ml, inhibitor 3nM",1.11
same,"reporter gene assay signal, mean (Figure 3d)","[1]; IL-1alpha 49905 pg/ml, inhibitor 3nM",1.47
same,"reporter gene assay signal, mean (Figure 3d)","[2]; IL-1beta 3.04596 pg/ml, inhibitor 3nM",0.06
same,"reporter gene assay signal, mean (Figure 3d)","[2]; IL-1beta 6.09192 pg/ml, inhibitor 3nM",0.06
same,"reporter gene assay signal, mean (Figure 3d)","[2]; IL-1beta 12.1838 pg/ml, inhibitor 3nM",0.06
same,"reporter gene assay signal, mean (Figure 3d)","[2]; IL-1beta 24.3677 pg/ml, inhibitor 3nM",0.06
same,"reporter gene assay signal, mean (Figure 3d)","[2]; IL-1beta 48.7353 pg/ml, inhibitor 3nM",0.06
same,"reporter gene assay signal, mean (Figure 3d)","[2]; IL-1beta 97.4707 pg/ml, inhibitor 3nM",0.07
same,"reporter gene assay signal, mean (Figure 3d)","[2]; IL-1beta 194.941 pg/ml, inhibitor 3nM",0.08
same,"reporter gene assay signal, mean (Figure 3d)","[2]; IL-1beta 389.883 pg/ml, inhibitor 3nM",0.09
same,"reporter gene assay signal, mean (Figure 3d)","[2]; IL-1beta 779.766 pg/ml, inhibitor 3nM",0.17
same,"reporter gene assay signal, mean (Figure 3d)","[2]; IL-1beta 1559.53 pg/ml, inhibitor 3nM",0.37
same,"reporter gene assay signal, mean (Figure 3d)","[2]; IL-1beta 3119.06 pg/ml, inhibitor 3nM",0.68
same,"reporter gene assay signal, mean (Figure 3d)","[2]; IL-1beta 6238.12 pg/ml, inhibitor 3nM",1.15
same,"reporter gene assay signal, mean (Figure 3d)","[2]; IL-1beta 12476.2 pg/ml, inhibitor 3nM",1.43
same,"reporter gene assay signal, mean (Figure 3d)","[2]; IL-1beta 24952.5 pg/ml, inhibitor 3nM",1.66
same,"reporter gene assay signal, mean (Figure 3d)","[2]; IL-1beta 49905 pg/ml, inhibitor 3nM",1.81
same,effect on hIL-1α driven IL-6 release,[3],could block the release of IL-6
same,Mean OD (OD 450nm),[3]; hu IL-1A 0 pg/mL,0.042
same,Mean OD (OD 450nm),[3]; hu IL-1A 40 pg/mL,0.05
same,Mean OD (OD 450nm),[3]; hu IL-1A 80 pg/mL,0.061
same,Mean OD (OD 450nm),[3]; hu IL-1A 120 pg/mL,0.067
same,Mean OD (OD 450nm),[3]; hu IL-1A 160 pg/mL,0.073
same,Mean OD (OD 450nm),[3]; hu IL-1A 200 pg/mL,0.103
same,"IL-1alpha (mean, SD): mean readout (IL-6 release)",[3]; hu IL-1a 0 pg/mL,0
same,"IL-1alpha (mean, SD): mean readout (IL-6 release)",[3]; hu IL-1a 40 pg/mL,0
same,"IL-1alpha (mean, SD): mean readout (IL-6 release)",[3]; hu IL-1a 80 pg/mL,0
same,"IL-1alpha (mean, SD): mean readout (IL-6 release)",[3]; hu IL-1a 120 pg/mL,0
same,"IL-1alpha (mean, SD): mean readout (IL-6 release)",[3]; hu IL-1a 160 pg/mL,0
same,"IL-1alpha (mean, SD): mean readout (IL-6 release)",[3]; hu IL-1a 200 pg/mL,3.7
same,block of hIL-1β driven IL-6 release,[4],could block the release of IL-6
same,Mean OD (OD 450nm),[4]; hu IL-1b 0 pg/mL,0.034
same,"IL-1beta (mean, SD): mean readout (IL-6 release)",[4]; hu IL-1b 0 pg/mL,0
same,Mean OD (OD 450nm),[4]; hu IL-1b 40 pg/mL,0.047
same,"IL-1beta (mean, SD): mean readout (IL-6 release)",[4]; hu IL-1b 40 pg/mL,0
same,Mean OD (OD 450nm),[4]; hu IL-1b 80 pg/mL,0.079
same,"IL-1beta (mean, SD): mean readout (IL-6 release)",[4]; hu IL-1b 80 pg/mL,0
same,Mean OD (OD 450nm),[4]; hu IL-1b 120 pg/mL,0.102
same,"IL-1beta (mean, SD): mean readout (IL-6 release)",[4]; hu IL-1b 120 pg/mL,0
same,Mean OD (OD 450nm),[4]; hu IL-1b 160 pg/mL,0.157
same,"IL-1beta (mean, SD): mean readout (IL-6 release)",[4]; hu IL-1b 160 pg/mL,404.5
same,Mean OD (OD 450nm),[4]; hu IL-1b 200 pg/mL,0.162
same,"IL-1beta (mean, SD): mean readout (IL-6 release)",[4]; hu IL-1b 200 pg/mL,439.1
